Reference: patent publication US12285407B2, “Bis-indolylmethane derivatives and uses thereof” (The University of The West Indies, priority 2018, dated 2025)
In brackets after ≈: the same amount, converted by molar mass. Read-outs that look alike come from different tables or passages of the source.

Legend:
Type in all cases: cell-based
Klebsiella pneumoniae = assay: Adjuvant broth microdilution (antibiotic MIC with SP-BIM at 50 μg/mL); conditions: for MIC of antibiotic, No Compound: Klebsiella pneumonia, no SP-BIM; for MIC: Klebsiella pneumoniae, read-out: MIC of antibiotic, No compound
Escherichia coli O157:H7 [1] = conditions: antibiotic alone, no SP-BIM
Bacillus cereus = assay: Adjuvant broth microdilution (antibiotic MIC with SP-BIM at 50 μg/mL); conditions: antibiotic alone, Table 9
[2] = system: clinical antibiotic resistant isolates of Enterococcus faecium; assay: Checkerboard resistance breaking by SP-BIM 13; conditions: for FIC compound / Rescue concentration of SP-BIM 13: SP-BIM 13 with the labelled antibiotic; for Interpretation / Σ FIC: antibiotic + SP-BIM 13; for MIC of antibiotic only: antibiotic alone; for FIC antibiotic: combination with SP-BIM 13; for MIC of antibiotic in combination: with SP-BIM 13 at rescue concentration
[3] = system: clinical strains of Enterococcus faecium; assay: Kirby Bauer disc diffusion susceptibility profile; conditions: for Zone of clearance: 35° C., 24 hours, average n=3; for Interpretive standard (resistant/susceptible): zones vs EUCAST breakpoints (Table 31)
Escherichia coli O157:H7 [4] = assay: Rescue concentrations of SP-BIM that reactivate antibiotic; conditions: Escherichia coli, read-out: MIC (single agent)

C[C@H]1c2cccc(O)c2C(=O)C2=C(O)[C@]3(O)C(=O)C(C(N)=O)=C(O)[C@@H](N(C)C)[C@@H]3[C@@H](O)[C@@H]21 [Doxycycline, doxycycline]
MIC of antibiotic, No Compound (Klebsiella pneumoniae; antibiotic alone): 8 µg/mL | MIC (Klebsiella pneumoniae; antibiotic alone, Table 7): 32 µg/mL | MIC of antibiotic, No Compound (Escherichia coli O157:H7 [1]): 2 µg/mL | MIC of antibiotic, No Compound (Bacillus cereus): <0.5 µg/mL

CC[C@H]1OC(=O)[C@H](C)[C@@H](O[C@H]2C[C@@](C)(OC)[C@@H](O)[C@H](C)O2)[C@H](C)[C@@H](O[C@@H]2O[C@H](C)C[C@H](N(C)C)[C@H]2O)[C@](C)(O)C[C@@H](C)C(=O)[C@H](C)[C@@H](O)[C@]1(C)O [Erythromycin, erythromycin]
MIC of antibiotic, No Compound (Klebsiella pneumoniae; antibiotic alone): >250 µg/mL | MIC (Klebsiella pneumoniae; antibiotic alone, Table 7): 32 µg/mL | MIC of antibiotic, No Compound (Escherichia coli O157:H7 [1]): 250 µg/mL | MIC of antibiotic, No Compound (Bacillus cereus): 4 µg/mL

[H]/N=C(/N)N[C@H]1[C@H](O)[C@@H](O)[C@H](O[C@@H]2O[C@@H](C)[C@](O)(C=O)[C@H]2O[C@@H]2O[C@@H](CO)[C@H](O)[C@@H](O)[C@@H]2NC)[C@@H](N/C(N)=N\[H])[C@@H]1O [Streptomycin, streptomycin]
MIC (Klebsiella pneumoniae; antibiotic alone, Table 7): 32 µg/mL | FIC compound ([2]; E. faecium strain 21955): 0252 | Rescue concentration of SP-BIM 13 ([2]; E. faecium strain 21955): 63 µg/mL | Interpretation ([2]; E. faecium strain 21955): Synergy (Synergy: FICI≤0.5) | Σ FIC ([2]; E. faecium strain 21955): <0.26 | MIC of antibiotic only ([2]; E. faecium strain 21955): 125 µg/mL | FIC antibiotic ([2]; E. faecium strain 21955): 0.004 | MIC of antibiotic in combination ([2]; E. faecium strain 21955): 0.5 µg/mL | FIC compound ([2]; E. faecium strain 23668): 0.064 | Rescue concentration of SP-BIM 13 ([2]; E. faecium strain 23668): 16 µg/mL | Interpretation ([2]; E. faecium strain 23668): Synergy (Synergy: FICI≤0.5) | Σ FIC ([2]; E. faecium strain 23668): <0.08 | MIC of antibiotic only ([2]; E. faecium strain 23668): 63 µg/mL | FIC antibiotic ([2]; E. faecium strain 23668): 0.016 | MIC of antibiotic in combination ([2]; E. faecium strain 23668): 1 µg/mL | FIC compound ([2]; E. faecium strain RC63): 0.032 | Rescue concentration of SP-BIM 13 ([2]; E. faecium strain RC63): 8 µg/mL | Interpretation ([2]; E. faecium strain RC63): Synergy (Synergy: FICI≤0.5) | Σ FIC ([2]; E. faecium strain RC63): <0.04 | MIC of antibiotic only ([2]; E. faecium strain RC63): 125 µg/mL | FIC antibiotic ([2]; E. faecium strain RC63): 0.008 | MIC of antibiotic in combination ([2]; E. faecium strain RC63): 1 µg/mL | Zone of clearance ([3]; E. faecium strain 15134): 20 mm | Interpretive standard (resistant/susceptible) ([3]; E. faecium strain 15134): S | Zone of clearance ([3]; E. faecium strain 21024): 17 mm | Interpretive standard (resistant/susceptible) ([3]; E. faecium strain 21024): S | Zone of clearance ([3]; E. faecium strain 21955): 13 mm | Interpretive standard (resistant/susceptible) ([3]; E. faecium strain 21955): R | Zone of clearance ([3]; E. faecium strain 22003): 18 mm | Interpretive standard (resistant/susceptible) ([3]; E. faecium strain 22003): S | Zone of clearance ([3]; E. faecium strain 22870): 29 mm | Interpretive standard (resistant/susceptible) ([3]; E. faecium strain 22870): S | Zone of clearance ([3]; E. faecium strain 23227): 25 mm | Interpretive standard (resistant/susceptible) ([3]; E. faecium strain 23227): S | Zone of clearance ([3]; E. faecium strain 23230): 14 mm | Interpretive standard (resistant/susceptible) ([3]; E. faecium strain 23230): S | Zone of clearance ([3]; E. faecium strain 23668): 13 mm | Interpretive standard (resistant/susceptible) ([3]; E. faecium strain 23668): R | Zone of clearance ([3]; E. faecium strain 24169): 19 mm | Interpretive standard (resistant/susceptible) ([3]; E. faecium strain 24169): S | Zone of clearance ([3]; E. faecium strain RC63): 5 mm | Interpretive standard (resistant/susceptible) ([3]; E. faecium strain RC63): R

CN[C@H](CC(C)C)C(=O)N[C@H]1C(=O)N[C@@H](CC(N)=O)C(=O)N[C@H]2C(=O)N[C@H]3C(=O)N[C@H](C(=O)N[C@H](C(=O)O)c4cc(O)cc(O)c4-c4cc3ccc4O)[C@H](O)c3ccc(c(Cl)c3)Oc3cc2cc(c3O[C@@H]2O[C@H](CO)[C@@H](O)[C@H](O)[C@H]2O[C@H]2C[C@](C)(N)[C@H](O)[C@H](C)O2)Oc2ccc(cc2Cl)[C@H]1O [Vancomycin, vancomycin]
MIC of antibiotic, No Compound (Klebsiella pneumoniae; antibiotic alone): >250 µg/mL | MIC (Klebsiella pneumoniae): > 250 µg/mL | MIC (Escherichia coli O157:H7 [4]): 250 µg/mL (≈ 173 µM) | FIC compound ([2]; E. faecium strain 21024): 0.128 | Rescue concentration of SP-BIM 13 ([2]; E. faecium strain 21024): 32 µg/mL | Interpretation ([2]; E. faecium strain 21024): Synergy (Synergy: FICI≤0.5) | Σ FIC ([2]; E. faecium strain 21024): <0.14 | MIC of antibiotic only ([2]; E. faecium strain 21024): 63 µg/mL | FIC antibiotic ([2]; E. faecium strain 21024): 0.016 | MIC of antibiotic in combination ([2]; E. faecium strain 21024): 1 µg/mL | FIC compound ([2]; E. faecium strain 22870): 0.004 | Rescue concentration of SP-BIM 13 ([2]; E. faecium strain 22870): 1 µg/mL | Interpretation ([2]; E. faecium strain 22870): Synergy (Synergy: FICI≤0.5) | Σ FIC ([2]; E. faecium strain 22870): <0.07 | MIC of antibiotic only ([2]; E. faecium strain 22870): 32 µg/mL | FIC antibiotic ([2]; E. faecium strain 22870): 0.063 | MIC of antibiotic in combination ([2]; E. faecium strain 22870): 2 µg/mL | FIC compound ([2]; E. faecium strain 23227): 0.032 | Rescue concentration of SP-BIM 13 ([2]; E. faecium strain 23227): 8 µg/mL | Interpretation ([2]; E. faecium strain 23227): Synergy (Synergy: FICI≤0.5) | Σ FIC ([2]; E. faecium strain 23227): <0.06 | MIC of antibiotic only ([2]; E. faecium strain 23227): 32 µg/mL | FIC antibiotic ([2]; E. faecium strain 23227): 0.031 | MIC of antibiotic in combination ([2]; E. faecium strain 23227): 1 µg/mL | FIC compound ([2]; E. faecium strain 23230): 0.064 | Rescue concentration of SP-BIM 13 ([2]; E. faecium strain 23230): 16 µg/mL | Interpretation ([2]; E. faecium strain 23230): Synergy (Synergy: FICI≤0.5) | Σ FIC ([2]; E. faecium strain 23230): <0.13 | MIC of antibiotic only ([2]; E. faecium strain 23230): 32 µg/mL | FIC antibiotic ([2]; E. faecium strain 23230): 0.063 | MIC of antibiotic in combination ([2]; E. faecium strain 23230): 2 µg/mL | FIC compound ([2]; E. faecium strain 23668): 0.064 | Rescue concentration of SP-BIM 13 ([2]; E. faecium strain 23668): 16 µg/mL | Interpretation ([2]; E. faecium strain 23668): Synergy (Synergy: FICI≤0.5) | Σ FIC ([2]; E. faecium strain 23668): <0.10 | MIC of antibiotic only ([2]; E. faecium strain 23668): 32 µg/mL | FIC antibiotic ([2]; E. faecium strain 23668): 0.031 | MIC of antibiotic in combination ([2]; E. faecium strain 23668): 1 µg/mL | FIC compound ([2]; E. faecium strain 24169): 0.128 | Rescue concentration of SP-BIM 13 ([2]; E. faecium strain 24169): 32 µg/mL | Interpretation ([2]; E. faecium strain 24169): Synergy (Synergy: FICI≤0.5) | Σ FIC ([2]; E. faecium strain 24169): <0.14 | MIC of antibiotic only ([2]; E. faecium strain 24169): 63 µg/mL | FIC antibiotic ([2]; E. faecium strain 24169): 0.008 | MIC of antibiotic in combination ([2]; E. faecium strain 24169): 0.5 µg/mL | Rescue concentration of SP-BIM 13 ([2]; E. faecium strain RC63): 63 µg/mL | Interpretation ([2]; E. faecium strain RC63): Synergy (Synergy: FICI≤0.5) | Σ FIC ([2]; E. faecium strain RC63): <0.26 | MIC of antibiotic only ([2]; E. faecium strain RC63): 32 µg/mL | FIC antibiotic ([2]; E. faecium strain RC63): 0.006 | MIC of antibiotic in combination ([2]; E. faecium strain RC63): 0.2 µg/mL | MIC ([2]; Enterococcus faecium, read-out: MIC of Vancomycin without SP-BIM 13): 32 to 63 µg/mL | MIC of antibiotic, No Compound (Escherichia coli O157:H7 [1]): 250 µg/mL | MIC of antibiotic, No Compound (Bacillus cereus): 4 µg/mL | Zone of clearance ([3]; E. faecium strain 15134): 12 mm | Interpretive standard (resistant/susceptible) ([3]; E. faecium strain 15134): S | Zone of clearance ([3]; E. faecium strain 21024): 9 mm | Interpretive standard (resistant/susceptible) ([3]; E. faecium strain 21024): R | Zone of clearance ([3]; E. faecium strain 21955): 15 mm | Interpretive standard (resistant/susceptible) ([3]; E. faecium strain 21955): S | Zone of clearance ([3]; E. faecium strain 22003): 16 mm | Interpretive standard (resistant/susceptible) ([3]; E. faecium strain 22003): S | Zone of clearance ([3]; E. faecium strain 22870): 10 mm | Interpretive standard (resistant/susceptible) ([3]; E. faecium strain 22870): R | Zone of clearance ([3]; E. faecium strain 23227): 9 mm | Interpretive standard (resistant/susceptible) ([3]; E. faecium strain 23227): R | Zone of clearance ([3]; E. faecium strain 23230): 5 mm | Interpretive standard (resistant/susceptible) ([3]; E. faecium strain 23230): R | Zone of clearance ([3]; E. faecium strain 23668): 10 mm | Interpretive standard (resistant/susceptible) ([3]; E. faecium strain 23668): R | Zone of clearance ([3]; E. faecium strain 24169): 10 mm | Interpretive standard (resistant/susceptible) ([3]; E. faecium strain 24169): R | Zone of clearance ([3]; E. faecium strain RC63): 8 mm | Interpretive standard (resistant/susceptible) ([3]; E. faecium strain RC63): R
